pIC50: −log10 of the molar value. Calls of active or inactive are those of the source. The rule behind the calls is not given here.
How the values were obtained:
ASPC1 [1] = assay: Antiproliferative activity against human AsPC1 cells assessed as inhibition of cell growth incubated for 72 hrs by CCK-8 assay; format: functional, cell-based; details: ASPC1, 72 h
BXPC-3 = assay: Antiproliferative activity against human BXPC-3 cells assessed as inhibition of cell growth incubated for 72 hrs by CCK-8 assay; format: functional, cell-based; details: BXPC-3, 72 h
HPAF-II = assay: Antiproliferative activity against human HPAF-II cells assessed as inhibition of cell growth incubated for 72 hrs by CCK-8 assay; format: functional, cell-based
[2] = Cmax in Sprague-Dawley rat at 2 mg/kg, iv measured upto 48 hrs by LC-MS/MS analysis; format: ADME, organism-based; details: in vivo
[3] = Toxicity in NOD-SCID mouse xenografted with human ASPC1 cells assessed as body weight loss at 10 mg/kg, ip administered for once daily for 14 days; format: organism-based; details: in vivo, 336 h, time 14 day
ASPC1 [4] = assay: Antitumor activity against human ASPC1 cells xenografted in NOD-SCID mouse assessed as tumor growth inhibition at 10 mg/kg, ip administered for 14 days; format: functional; details: ASPC1, 336 h, time 14 day, read-out: TGI
[5] = target: T1, Phospholipid hydroperoxide glutathione peroxidase GPX4 (Homo sapiens) (UniProt P36969); assay: Binding affinity to GPX4 in human ASPC1 cells at 0.2 uM by SDS-PAGE analysis; format: cell-based; details: time 0.1 hrs, TDE = time-dependent effect
T1 sequence (whole entry): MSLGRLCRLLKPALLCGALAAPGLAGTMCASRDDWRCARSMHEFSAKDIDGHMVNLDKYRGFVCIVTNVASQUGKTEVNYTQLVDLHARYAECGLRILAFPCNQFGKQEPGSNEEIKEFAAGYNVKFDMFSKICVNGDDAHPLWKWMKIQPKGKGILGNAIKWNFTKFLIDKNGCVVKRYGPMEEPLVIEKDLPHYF

[6] = target: T1, Phospholipid hydroperoxide glutathione peroxidase GPX4 (Homo sapiens); assay: Binding affinity to GPX4 in human ASPC1 cells at 0.2 uM incubated for 1 hr in presence of N-ethynyl-N-methyl-4-((methyl(4(trifluoromethyl)phenyl)amino)methyl)benzenesulfonamide by SDS-PAGE analysis; format: cell-based
[7] = target: T1, Phospholipid hydroperoxide glutathione peroxidase GPX4 (Homo sapiens); assay: Binding affinity to GPX4 in human CFPAC-1 cells at 0.2 uM incubated for 1 hr by SDS-PAGE analysis; format: cell-based
[8] = target: T1, Phospholipid hydroperoxide glutathione peroxidase GPX4 (Homo sapiens); assay: Binding affinity to GPX4 in human BXPC-3 cells at 0.2 uM incubated for 1 hr by SDS-PAGE analysis; format: cell-based
[9] = target: T1, Phospholipid hydroperoxide glutathione peroxidase GPX4 (Homo sapiens); assay: Binding affinity to GPX4 in human SW1990 cells at 0.2 uM incubated for 1 hr by SDS-PAGE analysis; format: cell-based
[10] = target: T1, Phospholipid hydroperoxide glutathione peroxidase GPX4 (Homo sapiens); assay: Binding affinity to GPX4 in human PANC-1 cells at 0.2 uM incubated for 1 hr by SDS-PAGE analysis; format: cell-based
[11] = target: T1, Phospholipid hydroperoxide glutathione peroxidase GPX4 (Homo sapiens); assay: Binding affinity to GPX4 in human HPAC cells at 0.2 uM incubated for 1 hr by SDS-PAGE analysis; format: cell-based
[12] = target: T2, Fructose-bisphosphate aldolase A (Homo sapiens) (UniProt P04075); assay: Binding affinity to ALDOA in human ASPC1 cells at 1 uM incubated for 5 hrs by Western blot analysis; format: cell-based
T2 sequence (whole entry): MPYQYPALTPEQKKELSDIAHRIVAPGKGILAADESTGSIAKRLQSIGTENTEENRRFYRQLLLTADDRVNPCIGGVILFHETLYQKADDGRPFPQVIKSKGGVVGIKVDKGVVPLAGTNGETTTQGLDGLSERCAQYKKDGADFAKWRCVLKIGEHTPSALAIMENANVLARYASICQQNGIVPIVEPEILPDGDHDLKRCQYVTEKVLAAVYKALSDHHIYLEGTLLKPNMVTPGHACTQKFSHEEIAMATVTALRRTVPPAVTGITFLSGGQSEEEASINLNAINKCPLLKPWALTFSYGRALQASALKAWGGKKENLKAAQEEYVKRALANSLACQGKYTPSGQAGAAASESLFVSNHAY

[13] = target: T3, Phosphoglycerate kinase 1 (Homo sapiens) (UniProt P00558); assay: Binding affinity to PGK1 in human ASPC1 cells at 1 uM incubated for 5 hrs by Western blot analysis; format: cell-based
T3 sequence (whole entry): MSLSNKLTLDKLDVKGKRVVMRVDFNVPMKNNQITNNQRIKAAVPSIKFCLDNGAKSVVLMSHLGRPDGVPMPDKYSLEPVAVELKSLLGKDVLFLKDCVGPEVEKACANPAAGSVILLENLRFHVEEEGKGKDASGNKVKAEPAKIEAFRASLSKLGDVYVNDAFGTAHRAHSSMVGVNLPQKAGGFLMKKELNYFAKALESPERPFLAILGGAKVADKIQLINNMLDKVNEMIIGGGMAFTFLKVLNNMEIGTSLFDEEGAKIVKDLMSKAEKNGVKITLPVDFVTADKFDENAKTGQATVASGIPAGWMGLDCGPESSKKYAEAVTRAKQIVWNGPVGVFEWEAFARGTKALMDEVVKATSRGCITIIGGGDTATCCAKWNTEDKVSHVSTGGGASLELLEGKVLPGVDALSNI

[14] = target: Large ribosomal subunit protein eL28 (Homo sapiens) (UniProt P46779); assay: Binding affinity to RL28 in human ASPC1 cells at 1 uM incubated for 5 hrs by Western blot analysis; format: cell-based
Homo sapiens = species on record: Homo sapiens; assay: Binding affinity to GPX4 U46C mutant (unknown origin) incubated for 1 hr by pull-down based Western blot analysis; details: dose 0.2-5 µM
[15] = target: T1, Phospholipid hydroperoxide glutathione peroxidase GPX4 (Homo sapiens); assay: Binding affinity to GPX4 in human ASPC1 cells incubated for 1 hr by imaging analysis; format: cell-based; details: dose 0.2-5 µM
[16] = target: T1, Phospholipid hydroperoxide glutathione peroxidase GPX4 (Homo sapiens); assay: Competitive binding affinity to GPX4 in human ASPC1 cells at 0.2 uM incubated for 1 hr in presence of ML162; format: cell-based
[17] = target: T1, Phospholipid hydroperoxide glutathione peroxidase GPX4 (Homo sapiens); assay: Competitive binding affinity to GPX4 in human ASPC1 cells at 0.2 uM incubated for 1 hr in presence of ML210; format: cell-based
ASPC1 [18] = assay: Induction of ferroptosis in human ASPC1 cells assessed as cell death at 2 uM in presence of Ferrostatin-1; format: functional, cell-based
ASPC1 [19] = assay: Induction of ferroptosis in human ASPC1 cells assessed as cell death at 2 uM in presence of Z-VAD-FMK; format: functional, cell-based
ASPC1 [20] = assay: Induction of ferroptosis in human ASPC1 cells assessed as cell death at 2 uM in presence of Necrostatin-1; format: functional, cell-based
ASPC1 [21] = assay: Induction of ferroptosis in human ASPC1 cells assessed as decrease in intracellular GSH level at 5 uM incubated for 5 hrs in presence of […]; format: functional, cell-based
ASPC1 [22] = assay: Induction of ferroptosis in human ASPC1 cells assessed as effect on ROS level at 1 uM incubated for 3 hrs in absence of […]; format: functional, cell-based
ASPC1 [23] = assay: Induction of ferroptosis in human ASPC1 cells assessed as reduction in cell viability incubated for 48 hrs followed by compound washout by CCK-8 assay; format: functional, cell-based; details: ASPC1, 48 h
ASPC1 [24] = assay: Induction of ferroptosis in human ASPC1 cells assessed as reduction in cell viability incubated for 72 hrs followed by compound washout by CCK-8 assay; format: functional, cell-based; details: ASPC1, 72 h
Mus musculus = assay: In vivo target engagement at GPX4 in SCID mouse at 10 mg/kg, ip qd administered for 14 days and measured after 2 hrs by SDS-PAGE analysis; format: functional, organism-based; details: time 14.0 day

## C#CCN(Cc1ccc(S(=O)(=O)N(C)C#C)cc1)c1ccc(-c2nc3ccccc3s2)cc1
ASPC1 [1]
  pIC50: 7.66
BXPC-3
  pIC50: 7.70
HPAF-II
  pIC50: 7.70
[2]
  Cmax: 2250 ng/mL
[3]
  Activity: Non-Toxic
ASPC1 [4]
  inhibition in vivo at 10 mg/kg: 28%
[5]
  Activity: Tde
[6]
  Activity: Active
[7]
  Activity: Active
[8]
  Activity: Active
[9]
  Activity: Active
[10]
  Activity: Active
[11]
  Activity: Active
[12]
  Activity: Active
[13]
  Activity: Active
[14]
  Activity: Active
Homo sapiens
  Activity: Active
[15]
  Activity: Dose-Dependent Effect
[16]
  Activity: Active
[17]
  Activity: Active
ASPC1 [18]
  Activity: inactive
ASPC1 [19]
  Activity: inactive
ASPC1 [20]
  Activity: inactive
ASPC1 [21]
  Activity: Active
ASPC1 [22]
  Activity: Active
ASPC1 [23]
  pIC50: 7.48
ASPC1 [24]
  pIC50: 7.54
Mus musculus
  Activity: Active

From ChEMBL document CHEMBL5537195, “Novel Covalent Probe Selectively Targeting Glutathione Peroxidase 4 In Vivo: Potential Applications in Pancreatic Cancer Therapy” (J Med Chem, 2024)
